Values quoted from earlier work as cited in patent US8420593B1, “Compositions and methods for regulating membrane potential” (priority 2006, dated 2013).
Counter-ions that a name gives are not always drawn. Like-named read-outs stand apart in the source and are kept apart here.

Key:
[1] = test system: spinal cord injury; conditions: days 25, 26 and 27
[2] = test system: chronic spinal cord injury; conditions: in vivo
[3] = test system: sodium channels
[4] = test system: potassium currents in PC12 cells
[5] = test system: spinal cord injury

SMILES | motor function (open field walking analysis) ([1]; 0.6 mg/kg, ip, compared with HP184) | side effects associated with central nervous system activation [2] | activity on sodium channels [3] | activity on potassium currents [4] | motor function (open field walking analysis) ([1]; 3, 10 and 20 mg/kg, po, established (25 day post injury) injury, mild intensity) | motor function (open field walking) ([5]; 3 mg/kg, po, long-standing (35 day post injury) injury, moderate intensity) | improvement in walking ability, multiple dose studies ([5]; once a day oral dosing at 3, 1 and 0.3 mg/kg, moderately injured rats, compression model)
Nc1ccncc1 [4-AP, 4-aminopyridine] | This improvement was equaled by the improvement observed with 4-AP | restlessness, confusion, and infrequently reported findings of generalized tonic-clonic seizure |  |  |  |  | 
CCCN(c1ccncc1F)n1cc(C)c2ccccc21 [HP184, N-[N-propyl]-N-[3-fluoro-4-pyridinyl]-1H-3-methylindole-1-amine hydrochloride] |  |  | use- and frequency dependent blocker of sodium channels | voltage dependent blocker of potassium currents | significantly improved motor function | significantly improved motor function | confirmed the effectiveness
